# Experimental data taken from PubChem BioAssay AID330 (DTP/NCI, 2004).
# Several values for one entry are separate records, joined by “and”; a condition that tells them apart may be missing. Equal entries are not always repeated. Inconclusive results and toxic doses are left out.
# System: P388 leukemia ip, CD2F1 mice, survival T/C
# Test: NCI In Vivo Anticancer Drug Screen. Data for tumor model P388 Leukemia (intraperitoneal) in CD2F1 (CDF1) mice
# Details: endpoint: median survival time, higher = longer survival
# How it was run: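 Mice carrying the transplanted tumor received test compound or vehicle. Survival was recorded in each group, and the value is the treated-group measurement divided by that of the vehicle-treated control group.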
# [1] = dose: 50.0 mg/kg/injection, schedule: Q01DX009 (ip), vehicle: Klucel (hydroxypropylcellulose) (HPC)
# [2] = dose: 100.0 mg/kg/injection, schedule: Q01DX009 (ip), vehicle: Klucel (hydroxypropylcellulose) (HPC)
# [3] = dose: 200.0 mg/kg/injection, schedule: Q01DX009 (ip), vehicle: Klucel (hydroxypropylcellulose) (HPC)
# [4] = dose: 60.0 mg/kg/injection, schedule: Q01DX005 (ip), vehicle: saline with Tween-80
# [5] = dose: 120.0 mg/kg/injection, schedule: Q01DX005 (ip), vehicle: saline with Tween-80
# [6] = dose: 240.0 mg/kg/injection, schedule: Q01DX005 (ip), vehicle: saline with Tween-80
# [7] = dose: 50.0 mg/kg/injection, schedule: Q01DX005 (ip), vehicle: saline with Tween-80
# [8] = dose: 50.0 mg/kg/injection, schedule: Q01DX009 (ip), vehicle: saline with Tween-80
# [9] = dose: 100.0 mg/kg/injection, schedule: Q01DX009 (ip), vehicle: saline with Tween-80
# [10] = dose: 200.0 mg/kg/injection, schedule: Q01DX009 (ip), vehicle: saline with Tween-80
# [11] = dose: 50.0 mg/kg/injection, schedule: Q01DX005 (ip), vehicle: Klucel (hydroxypropylcellulose) (HPC)
# [12] = dose: 100.0 mg/kg/injection, schedule: Q01DX005 (ip), vehicle: Klucel (hydroxypropylcellulose) (HPC)
# [13] = dose: 200.0 mg/kg/injection, schedule: Q01DX005 (ip), vehicle: Klucel (hydroxypropylcellulose) (HPC)
# [14] = dose: 12.5 mg/kg/injection, schedule: Q01DX005 (ip), vehicle: saline with Tween-80
# [15] = dose: 25.0 mg/kg/injection, schedule: Q01DX005 (ip), vehicle: saline with Tween-80
# [16] = dose: 50.0 mg/kg/injection, schedule: Q01DX005 (ip), vehicle: saline
structure (smiles),measurement,setting,value
NC(=O)c1nccnc1Cl,T/C,[1],101 % of control
same,T/C,[2],100 % of control
same,T/C,[3],114 % of control
C=C(CBr)CCCCC,T/C,[4],104 % of control
same,T/C,[5],105 % of control
same,T/C,[6],117 % of control
CCOC(=O)C1CSC2(CC(C)CC(C)(C)C2)N1 (stereo not given),T/C,[7],106 % of control
same,T/C,"dose: 100.0 mg/kg/injection, schedule: Q01DX005 (ip), vehicle: saline with Tween-80",107 % of control
same,T/C,"dose: 200.0 mg/kg/injection, schedule: Q01DX005 (ip), vehicle: saline with Tween-80",104 % of control
S=C1NC2(CCCCCC2)NN1c1ccccc1,T/C,[8],97 % of control
same,T/C,[9],94 % of control
same,T/C,[10],91 % of control
COc1cc(C2c3cc4c(cc3C(O)C(CO)C2CO)OCO4)cc(OC)c1OC (stereo not given),T/C,"dose: 11.0 mg/kg/injection, schedule: Q01DX009 (ip), vehicle: saline with Tween-80",118 % of control
same,T/C,"dose: 25.0 mg/kg/injection, schedule: Q04DX003 (ip), vehicle: saline with Tween-80",115 % of control
same,T/C,"dose: 37.5 mg/kg/injection, schedule: Q01DX009 (ip), vehicle: saline with Tween-80",150 % of control
same,T/C,[11],103 % of control
same,T/C,[12],97 % of control
same,T/C,"dose: 100.0 mg/kg/injection, schedule: Q01DX009 (ip), vehicle: saline sonified",165 % of control
same,T/C,"dose: 100.0 mg/kg/injection, schedule: Q04DX003 (ip), vehicle: saline with Tween-80",155 % of control
same,T/C,[13],94 % of control
same,T/C,"dose: 200.0 mg/kg/injection, schedule: Q01DX009 (ip), vehicle: saline sonified",195 % of control
same,T/C,"dose: 264.0 mg/kg/injection, schedule: Q04DX003 (ip), vehicle: saline with Tween-80",154 % of control
same,T/C,"dose: 400.0 mg/kg/injection, schedule: Q01DX009 (ip), vehicle: saline sonified",95 % of control
same,T/C,"dose: 400.0 mg/kg/injection, schedule: Q04DX003 (ip), vehicle: saline with Tween-80",163 % of control
C/C=C/c1cc2n(c1)C(=O)c1cc(OC3OC(C)C(NC)C(C)(O)C3O)c(C)c(O)c1NC2O (stereo not given),T/C,"dose: 0.02 mg/kg/injection, schedule: Q04DX003 (ip), vehicle: saline",94 % of control
same,T/C,"dose: 0.04 mg/kg/injection, schedule: Q04DX003 (ip), vehicle: saline",89 % of control
same,T/C,"dose: 0.3 micrograms/kg/injection, schedule: Q03DX003 (ip), vehicle: DMSO",110 % of control
same,T/C,"dose: 1.0 micrograms/kg/injection, schedule: Q01DX001 (ip), vehicle: DMSO",120 % of control
same,T/C,"dose: 1.0 micrograms/kg/injection, schedule: Q01DX009 (ip), vehicle: saline",100 % of control
same,T/C,"dose: 4.0 micrograms/kg/injection, schedule: Q01DX009 (ip), vehicle: saline",117 % of control
same,T/C,"dose: 4.0 micrograms/kg/injection, schedule: Q04DX003 (ip), vehicle: DMSO",120 % of control
same,T/C,"dose: 16.0 micrograms/kg/injection, schedule: Q01DX001 (ip), vehicle: DMSO",173 % of control
same,T/C,"dose: 16.0 micrograms/kg/injection, schedule: Q03DX003 (ip), vehicle: DMSO",180 % of control
same,T/C,"dose: 16.0 micrograms/kg/injection, schedule: Q04DX003 (ip), vehicle: DMSO",123 % of control
same,T/C,"dose: 32.0 micrograms/kg/injection, schedule: Q01DX001 (ip), vehicle: DMSO",95 % of control
Cc1ccc2[nH]c(=O)c(=O)[nH]c2c1,T/C,"dose: 25.0 mg/kg/injection, schedule: Q01DX009 (ip), vehicle: saline with Tween-80",119 % of control
same,T/C,[8],103 % of control
same,T/C,[9],105 % of control
same,T/C,[10],104 % of control
CC1CN1P(=O)(c1ccccc1)N1CC1C (stereo not given),T/C,[14],108 % of control
same,T/C,"dose: 12.5 mg/kg/injection, schedule: Q01DX005 (ip), vehicle: saline",100 % of control
same,T/C,[15],100 % of control
same,T/C,"dose: 25.0 mg/kg/injection, schedule: Q01DX005 (ip), vehicle: saline",95 % of control
same,T/C,[7],104 % of control and 97 % of control
same,T/C,[16],96 % of control
same,T/C,"dose: 50.0 mg/kg/injection, schedule: Q01DX005 (ip), vehicle: suspension in saline",105 % of control
same,T/C,"dose: 100.0 mg/kg/injection, schedule: Q01DX005 (ip), vehicle: suspension in saline",115 % of control
CCCCn1/c(=N/N=Nc2ccccc2)sc2ccccc21,T/C,"dose: 7.5 mg/kg/injection, schedule: Q01DX005 (ip), vehicle: saline with Tween-80",115 % of control
same,T/C,"dose: 15.0 mg/kg/injection, schedule: Q01DX005 (ip), vehicle: saline with Tween-80",117 % of control
same,T/C,"dose: 30.0 mg/kg/injection, schedule: Q01DX005 (ip), vehicle: saline with Tween-80",118 % of control
COc1cccc(/C=C2/C(=O)N(c3ccc([N+](=O)[O-])cc3)N=C2C)c1,T/C,"dose: 30.0 mg/kg/injection, schedule: Q01DX005 (ip), vehicle: Klucel (hydroxypropylcellulose) (HPC)",97 % of control
same,T/C,"dose: 60.0 mg/kg/injection, schedule: Q01DX005 (ip), vehicle: Klucel (hydroxypropylcellulose) (HPC)",88 % of control
same,T/C,"dose: 120.0 mg/kg/injection, schedule: Q01DX005 (ip), vehicle: Klucel (hydroxypropylcellulose) (HPC)",98 % of control
same,T/C,"dose: 240.0 mg/kg/injection, schedule: Q01DX005 (ip), vehicle: Klucel (hydroxypropylcellulose) (HPC)",93 % of control
CCN=C1C=CC(=C(c2ccc(N(CC)CC)cc2)c2ccc(N(CC)CC)cc2)c2ccccc21,T/C,"dose: 6.25 mg/kg/injection, schedule: Q01DX005 (ip), vehicle: saline with Tween-80",110 % of control and 113 % of control
same,T/C,[14],118 % of control (2×) and 119 % of control
same,T/C,[15],115 % of control
CC(C)C1[NH][Sn]2([NH]C(C(C)C)C(=O)[O]2)[O]C1=O (stereo not given),T/C,[11],97 % of control
same,T/C,[12],106 % of control
COc1ccc(CC#N)c(OC)c1,T/C,"dose: 12.5 mg/kg/injection, schedule: Q01DX009 (ip), vehicle: other",102 % of control
same,T/C,"dose: 25.0 mg/kg/injection, schedule: Q01DX009 (ip), vehicle: other",102 % of control
O=C1CCC(Cc2ccc(C(F)(F)F)cc2)C(=O)N1 (stereo not given),T/C,[4],102 % of control
same,T/C,[5],95 % of control
same,T/C,[6],98 % of control
COc1ccc(C2CC(c3ccccc3)=Nc3ccccc3S2)cc1OC (stereo not given),T/C,[1],102 % of control
same,T/C,[2],90 % of control
same,T/C,[3],96 % of control
CC(=O)OCC#CCN1CCC(C)CC1,T/C,[16],97 % of control
same,T/C,"dose: 100.0 mg/kg/injection, schedule: Q01DX005 (ip), vehicle: saline",95 % of control
same,T/C,"dose: 200.0 mg/kg/injection, schedule: Q01DX005 (ip), vehicle: saline",102 % of control
Cc1cc(C(=O)O)c(C)c2c1sc1ccccc12,T/C,[4],101 % of control
same,T/C,[5],114 % of control
CCN(CC)CCNc1cc(O)c2c(c1O)C(=O)c1ccccc1C2=O,T/C,"dose: 25.0 mg/kg/injection, schedule: Q04DX002 (ip), vehicle: saline with Tween-80",105 % of control
same,T/C,"dose: 50.0 mg/kg/injection, schedule: Q04DX002 (ip), vehicle: saline with Tween-80",98 % of control
same,T/C,"dose: 100.0 mg/kg/injection, schedule: Q04DX002 (ip), vehicle: saline with Tween-80",103 % of control and 107 % of control
OCC1OC(OC2C(CO)OC(Sc3ccccc3)C(O)C2O)C(O)C(O)C1O (stereo not given),T/C,[11],101 % of control
same,T/C,[12],105 % of control
same,T/C,[13],105 % of control
CC1CCC(C(C)C)C(OC(=O)c2cc[n+](C)cc2)C1 (stereo not given),T/C,[11],107 % of control
same,T/C,[12],98 % of control
C=C1CCC2C(C)(CO)C(O)CCC2(C)C1C/C=C1\C(=O)OCC1O (stereo not given),T/C,"dose: 25.0 mg/kg/injection, schedule: Q01DX005 (ip), vehicle: Klucel (hydroxypropylcellulose) (HPC)",109 % of control
same,T/C,[11],108 % of control
same,T/C,[12],114 % of control
same,T/C,[13],117 % of control
OC12CCCCC1CCCS2 (stereo not given),T/C,"dose: 100.0 mg/kg/injection, schedule: Q04DX003 (ip), vehicle: saline",98 % of control
same,T/C,"dose: 200.0 mg/kg/injection, schedule: Q04DX003 (ip), vehicle: saline",94 % of control
same,T/C,"dose: 400.0 mg/kg/injection, schedule: Q04DX003 (ip), vehicle: saline",102 % of control
CCCCS[Si](SC(C)(C)C)(SC(C)(C)C)SC(C)(C)C,T/C,"dose: 100.0 mg/kg/injection, schedule: Q04DX002 (ip), vehicle: suspension in saline",95 % of control
same,T/C,"dose: 200.0 mg/kg/injection, schedule: Q04DX002 (ip), vehicle: suspension in saline",99 % of control
same,T/C,"dose: 400.0 mg/kg/injection, schedule: Q04DX002 (ip), vehicle: suspension in saline",93 % of control
